Data on ten molecules can be found in publication PMC9775471, “Anticancer Activity of Thiophene Carboxamide Derivatives as CA-4 Biomimetics: Synthesis, Biological Potency, 3D Spheroid Model, and Molecular Dynamics Simulation” (Biomimetics, 2022).

Series [1] deals with Colo205 (colon adenocarcinoma) cells. In words: MTS cytotoxicity assay, Colo205. The series is classed as cell-based. The conditions noted are these: Homo sapiens, COLO 205, concentrations 1, 10, 50, 100, 300 µM, mean ± SD. The method, then:
(§1) Several tumor cell lines were used in this study including HeLa (cervical adenocarcinoma) HepG2, and Hep3B (HCC); B16F1 (melanoma); MCF-7 (breast carcinoma); Colo205 (colon adenocarcinoma); and CaCo-2 (colorectal adenocarcinoma), in addition to two normal cell lines LX-2 (human hepatic stellate) and Hek293t (kidney cell lines). All evaluated cells were incubated in RPMI-1640 medium and supplemented by 1% of Penicillin/Streptomycin antibiotics, 1% of l-glutamine, and 10% fetal bovine serum. The selected cells were cultivated at 37 °C in a wet environment containing 5% CO2.. In a 96-well plate, the seeding of cells was conducted as 2.5 × 10^4 cells per well. After 72 hr, the cells were confluent, the media was refreshed, and after that, all cells were incubated by several compounds’ concentrations (1, 10, 50, 100, and 300 µM). The viability of cells was investigated by the Cell Tilter 96® Aqueous One Solution Cell Proliferation (MTS) assay regarding the manufacturer’s instructions (Promega Corporation, Madison, WI). In the last step, 20 μL of MTS per 100 μL of media were added to each well and kept at 37 °C; after that at 490 nm wavelength the absorbance was collected.
For orientation: Formazan colour is commonly taken as a measure of viable cells.

For another series, the system named is HepG2 (HCC) cells. Nature of the series: MTS cytotoxicity assay, HepG2. The series is classed as cell-based. Particulars: Homo sapiens, concentrations 1, 10, 50, 100, 300 µM, mean ± SD. The method, then:
as §1

A further series concerns B16F1 (melanoma) cells. In words: MTS cytotoxicity assay, B16F1. Particulars: Mus musculus, B16-F1, concentrations 1, 10, 50, 100, 300 µM, mean ± SD. The series is classed as cell-based. The method, then:
as §1

Series [2] deals with HeLa (cervical adenocarcinoma) cells. In words: MTS cytotoxicity assay, HeLa. The series is classed as cell-based. Particulars: Homo sapiens, concentrations 1, 10, 50, 100, 300 µM, mean ± SD. Here is the method: as §1
The test system of a further series is Hep3B (HCC) cells. In words: MTS cytotoxicity assay, Hep3B. The series is classed as cell-based. The conditions noted are these: Homo sapiens, concentrations 1, 10, 50, 100, 300 µM, mean ± SD. Here is the method:
as §1

The test system of series [3] is MCF-7 (breast carcinoma) cells. In words: MTS cytotoxicity assay, MCF-7. The series is classed as cell-based. The conditions noted are these: Homo sapiens, MCF7, concentrations 1, 10, 50, 100, 300 µM, mean ± SD. Here is the method: as §1
The test system of series [4] is Hek293t (kidney cell lines). Nature of the series: MTS cytotoxicity assay, normal cell line Hek293t. The series is classed as cell-based. The conditions noted are these: Homo sapiens, HEK-293T, concentrations 1, 10, 50, 100, 300 µM, mean ± SD. Here is the method: as §1
Series [5] has as its system LX-2 (human hepatic stellate) cells. In words: MTS cytotoxicity assay, normal cell line LX-2. The series is classed as cell-based. Particulars: concentrations 1, 10, 50, 100, 300 µM. The method, then: as §1
The test system of series [6] is CaCo-2 (colorectal adenocarcinoma) cells. Nature of the series: MTS cytotoxicity assay, CaCo-2. The series is classed as cell-based. The conditions noted are these: Homo sapiens, concentrations 1, 10, 50, 100, 300 µM, mean ± SD. The method, then: as §1
The subject of the next series is Hep3B liver cancer cells. Nature of the series: Hepatocellular carcinoma spheroids formation test (3D). The series is classed as cell-based. Particulars: 24 h; for Effect on Hep3B spheroid formation: 17 μg/mL, compared to non-treated cells. The method, then:
Hep3B liver cancer cells (4 × 10^3 per well) were seeded in round-bottomed supra-low attachment well plates over 24 h in the presence of 2b or 2e (17 μg/mL). Doxorubicin, a chemotherapeutic medication, was used as a positive control (100 μg/mL). Images of the formed spheroids/clusters were captured at 0 h and 24 h using an inverted microscope with a final magnification of 100×. The photographs of the spheroids were assessed and quantified using ImageJ software.

The conditions of series [7]: cited from earlier work.
For series [8] the following is noted: cited from earlier work. This is another data set of the same source.
For series [9] the following is noted: cited from earlier work. This is another data set of the same source.
Series [10] relates to Hep3B (HCC). The conditions noted are these: cited from earlier work.
The subject of series [11] is Hep3B (HCC). More on the design: method as in PMID 33763478. The conditions noted are these: cited from earlier work.

Usually melting point stands for the temperature of the solid-liquid transition. For orientation: IC50 means the concentration that inhibits the measured activity by half. Higher therefore signals lower potency.

Converted amounts (≈) assume the structure as drawn. Like-named read-outs stand apart in the source and are kept apart here. A value given as a limit tells only on which side of the number the result lay.

The molecule `O=C(Nc1ccccc1)c1ccc(-c2ccc(F)cc2)s1` [2a, 5-(4-fluorophenyl)-N-phenylthiophene-2-carboxamide] gave a melting point of 203.5 to 205 °C. Also, in series [1], the half-inhibitory concentration (IC50) was more than 300 µM. Inhibition in the series with HepG2 (HCC) cells was half-maximal at 283.7 ± 1.79 µM (IC50). The IC50 in the series on B16F1 (melanoma) cells is more than 300 µM. The molecule further had an IC50 in series [2] of more than 300 µM. Moreover, half-maximal inhibition in the series with Hep3B (HCC) cells (IC50) was put at 28 ± 2.05 µM. For the same molecule, the IC50 in [3] was more than 300 µM. The IC50 in series [4] is more than 300 µM. Also, the IC50 in series [5] is more than 300 µM. Besides, the IC50 in [6] was more than 300 µM.

`COc1cc(NC(=O)c2ccc(-c3ccc(F)cc3)s2)cc(OC)c1OC` [2b, 5-(4-fluorophenyl)-N-(3,4,5-trimethoxyphenyl) thiophene-2-carboxamide] had a melting point of 190.8 to 192 °C. The “Effect on Hep3B spheroid formation” value in the series on Hep3B liver cancer cells is given as “significantly smaller spheroid”. Further, the midpoint of inhibition in [1], the IC50, lay at 35.1 ± 2.05 µM. The molecule also returned an IC50 in the series with HepG2 (HCC) cells of more than 300 µM. The molecule further displayed an IC50 with B16F1 (melanoma) cells of more than 300 µM. This molecule yielded an IC50 in series [2] of 205 µM. The IC50 with Hep3B (HCC) cells was 5.46 ± 1.47 µM. This molecule came in with an IC50 in series [3] of 29.7 ± 2.74 µM. In [4], this molecule had an IC50 of 278.1 ± 2.75 µM. The same molecule displayed an IC50 in series [5] of more than 300 µM. The molecule further displayed a half-maximal inhibitory concentration (IC50) in series [6] of more than 300 µM.

In the case of `CC(C)(C)c1ccc(NC(=O)c2ccc(-c3ccc(F)cc3)s2)cc1` [2c, N-(4-(tert-butyl)phenyl)-5-(4-fluorophenyl) thiophene-2-carboxamide], the melting point lay in the range of 218.5 to 220.4 °C. The molecule further had an IC50 in series [1] of more than 300 µM. The molecule further gave an IC50 in the series with HepG2 (HCC) cells of more than 300 µM. In the series with B16F1 (melanoma) cells, this molecule returned an IC50 of more than 300 µM. The molecule further returned an IC50 in series [2] of more than 300 µM. Besides, the IC50 in the series with Hep3B (HCC) cells stood at 189 ± 2.78 µM. In [3], this molecule registered an IC50 of more than 300 µM. Moreover, in series [4], the IC50 is more than 300 µM. This molecule also came in with an IC50 in [5] of more than 300 µM. Also, the IC50 in series [6] is more than 300 µM.

In turn, `COc1cc(NC(=O)c2ccc(-c3ccc(F)cc3)s2)cc(OC)c1` [2d, N-(3,5-dimethoxyphenyl)-5-(4-fluorophenyl) thiophene-2-carboxamide] gave a melting point of 156.5 to 157 °C. In series [1], the IC50 is more than 300 µM. The IC50 in the series with HepG2 (HCC) cells was more than 300 µM. For the same molecule, the IC50 with B16F1 (melanoma) cells was more than 300 µM. The molecule also gave an IC50 in [2] of more than 300 µM. The molecule also yielded an IC50 in the series with Hep3B (HCC) cells of 8.85 ± 1.45 µM. In series [3], this molecule had an IC50 of more than 300 µM. In series [4], this molecule had an IC50 of more than 300 µM. The IC50 in [5] was more than 300 µM. In series [6], this molecule had an IC50 of more than 300 µM.

Consider `COc1cc(NC(=O)c2ccc(-c3ccc(F)cc3)s2)c(OC)cc1Cl` [2e, N-(4-chloro-2,5-dimethoxyphenyl)-5-(4-flurophenyl)thiophene-2-carboxamide], for which the melting point was in the range of 185.5 to 187.5 °C. For the same molecule, in the series with Hep3B liver cancer cells, the “Effect on Hep3B spheroid formation” value is reported as “inhibited spheroid formation”. Besides, the IC50 in series [1] was 74.8 ± 1.45 µM. Moreover, in the series with HepG2 (HCC) cells, the IC50 worked out at 18.2 ± 0.78 µM. Also, the IC50 in the series with B16F1 (melanoma) cells is 112 ± 1.99 µM. The molecule also had an IC50 in series [2] of 39.6 ± 1.88 µM. The molecule also yielded an IC50 with Hep3B (HCC) cells of 12.6 ± 2.57 µM. For the same molecule, inhibition in series [3] was half-maximal at 42.5 ± 2.59 µM (IC50). Moreover, in series [4], the IC50 amounted to 105 ± 1.08 µM. Further, the IC50 in series [5] was more than 300 µM. Moreover, in series [6], the midpoint of inhibition, the IC50, lay at 82.9 ± 2.45 µM.

For `COc1ccc(/C=C\c2cc(OC)c(OC)c(OC)c2)cc1O` [CA-4, Combretastatin A-4], the Plasma half-life entry in series [7] is listed as “short”. Also, in series [8], the Chemical stability result was “chemical instability”. For the same molecule, the Water solubility entry in [9] was “poor”.

In the case of `COc1cccc2c1C(=O)c1c(O)c3c(c(O)c1C2=O)C[C@@](O)(C(=O)CO)C[C@@H]3O[C@H]1C[C@H](N)[C@H](O)[C@H](C)O1` [DOX, Doxorubicin, reference compound], the “Effect on Hep3B spheroid formation (positive control)” value with Hep3B liver cancer cells (100 μg/mL) is “no recognized sphere formation”. In addition, the IC50 was less than 1 µM in [1]; 1.6 ± 0.67 µM in the series with HepG2 (HCC) cells; less than 1 µM in the series on B16F1 (melanoma) cells; 1.55 ± 1.35 µM in [2]; 1.21 ± 1 µM in the series with Hep3B (HCC) cells; less than 1 µM in [3]. Further, the values for the IC50 in series [4], in [5] and in series [6] were 1.24 ± 0.87 µM, less than 1 µM and less than 1 µM, respectively.

Take `COc1ccc(OC)c(NC(=O)c2c(-c3ccccc3Cl)noc2C)c1` [St.1, 3-(2-chlorophenyl)-N-(2,5-dimethoxyphenyl)-5-methylisoxazole-4-carboxamide]: in the series on Hep3B (HCC) [10] (earlier isoxazole-carboxamide series, ortho halogen), the “IC50 against Hep3B” value was 23 mg/L (≈ 61.7 µM). The Cell cycle effect entry in the series with Hep3B (HCC) [11] is listed as “cell cycle arrest in the G2/M phase”.

In the case of `COc1ccc(NC(=O)c2c(-c3ccc(F)cc3)noc2C)cc1OC` [St.2, N-(3,4-dimethoxyphenyl)-3-(4-fluorophenyl)-5-methylisoxazole-4-carboxamide], the “IC50 against Hep3B” value in the series on Hep3B (HCC) [10] (earlier fluorophenyl-isoxazole series, para halogen) is 7.66 mg/L (≈ 21.5 µM).

As to `Cc1onc(-c2c(F)cccc2Cl)c1C(=O)Nc1ccc(C(C)(C)C)cc1` [St.3, N-(4-(tert-butyl)phenyl)-3-(2-chloro-6-fluorophenyl)-5-methylisoxazole-4-carboxamide], the “IC50 against Hep3B” value in the series with Hep3B (HCC) [10] (earlier series with two halogens at ortho positions) is 2.77 mg/L (≈ 7.16 µM).
